Measurements from US20240366539A1, “METHODS FOR TREATING AUTISM SPECTRUM DISORDERS” (INSTITUT NATIONAL DE LA SANTÉ ET DE LA RECHERCHE MÉDICALE, priority 2021, published 2024).

What was measured:
[1] = tested on: Shank3^Δex13-16−/− mice; assay: Direct social interaction test; assay type: in vivo, mouse; settings: Shank3Δex13-16−/− mice
Procedure: (§1) Mice were treated with vehicle (NaCl 0.9%; ip, 10 or 20 ml/kg), NaBr (Sigma-Aldrich, Saint-Quentin Fallavier, France) administered either chronically (once a day, 10, 30, 70, 125, 250 and 500 mg/kg; i.p. or per os, in a volume of 20 ml/kg—except for combination with VU0155041: […]) or acutely (250 mg/kg, 20 ml/kg), KBr (Sigma-Aldrich, Saint-Quentin Fallavier, France; 145 mg/kg; i.p., 20 ml/kg), bumetanide (R&D systems, Minneapolis, USA, 0.5 and 2 mg/kg; i.p., 20 ml/kg) or VU0155041 (Cayman Chemicals, Ann Arbor, USA, once a day, i.p., 1 mg/kg, 10 ml/kg). […] When treatment was given chronically, behavioral testing started 8 days after beginning of daily administration. Treatment was maintained for 8 to 18 consecutive days (see timelines in FIGS. 1 and 4), allowing thorough behavioral phenotyping. On testing days, or when treatment was given acutely, drugs (or vehicle) were administered 30 min before behavioral assays.
(§2) Direct social interaction test. On testing day, a pair of unfamiliar mice (not cage mates, age-, sex- and treatment-matched) was introduced in each arena for 10 min (15 lx). Each arena received a black plastic floor (transparent to infrared). […] The mean duration of nose and paw contacts was calculated from previous data (61-63).
(§3) To this purpose, we evaluated the effects of chronic NaBr administration at the dose of 250 mg/kg on autism-sensitive behaviors in these lines (FIG. 3A).

[2] = tested on: Fmr1^−/− mice; assay: Direct social interaction test; assay type: in vivo, mouse
Procedure: as §1, §2, §3

[3] = biological target: T1, rat mGlu4 receptor (Rattus norvegicus, UniProt P31423); assay: Calcium mobilization assay, mGlu4 signaling under glutamate stimulation; assay type: cell-based
T1 construct: expressed in transfected cells
T1 sequence (P31423 33-912): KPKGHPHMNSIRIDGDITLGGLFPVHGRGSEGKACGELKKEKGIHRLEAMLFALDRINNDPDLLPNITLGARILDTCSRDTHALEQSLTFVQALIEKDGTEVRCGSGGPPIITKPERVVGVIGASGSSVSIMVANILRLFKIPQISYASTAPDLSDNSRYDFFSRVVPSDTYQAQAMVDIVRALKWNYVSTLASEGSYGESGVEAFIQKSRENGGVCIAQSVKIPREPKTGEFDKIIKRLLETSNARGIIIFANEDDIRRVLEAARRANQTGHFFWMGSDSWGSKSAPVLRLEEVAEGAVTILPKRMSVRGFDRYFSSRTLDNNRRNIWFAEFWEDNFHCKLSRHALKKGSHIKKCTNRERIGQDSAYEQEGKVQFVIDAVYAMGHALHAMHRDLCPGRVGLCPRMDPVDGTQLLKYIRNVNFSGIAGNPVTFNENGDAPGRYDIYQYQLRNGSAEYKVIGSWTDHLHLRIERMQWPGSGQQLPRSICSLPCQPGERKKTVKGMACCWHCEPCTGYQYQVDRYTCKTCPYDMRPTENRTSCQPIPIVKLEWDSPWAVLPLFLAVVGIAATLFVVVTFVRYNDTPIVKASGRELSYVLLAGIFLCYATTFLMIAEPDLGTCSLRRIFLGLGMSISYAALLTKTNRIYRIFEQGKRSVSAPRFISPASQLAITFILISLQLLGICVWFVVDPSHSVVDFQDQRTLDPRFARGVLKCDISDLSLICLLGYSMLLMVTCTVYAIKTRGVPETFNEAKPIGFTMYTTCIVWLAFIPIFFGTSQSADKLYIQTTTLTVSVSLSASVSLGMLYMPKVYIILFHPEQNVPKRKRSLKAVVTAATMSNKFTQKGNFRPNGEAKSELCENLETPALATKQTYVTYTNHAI
Procedure: Human embryonic kidney (HEK) 293 cells were transiently transfected with rat mGlu4 receptor by electroporation together with a chimeric Gi/Gq protein to allow phospholipase activation and EAAC1, a glutamate transporter, to avoid influence of extracellular glutamate. For calcium mobilization, cells were seeded in a PLO-coated, black-walled, clear-bottomed. 96-well plate (Greiner Bio-One) at the density of 100,000 cells per well and for IPOne assay in a PLO-coated black 96-well plate (Greiner Bio-One) at the density of 50,000 cells per well. Cells were cultured in DMEM (Gibco™, Life Technologies), supplemented with 10% fetal bovine serum. Medium was changed by GlutaMAX (Gibco™, Life Technologies) to reduce extracellular glutamate concentration 3 h before experiment.
Chloride and bromide ion concentrations in the buffers used for in vitro experiments were chosen for best matching physiological conditions. It was previously shown that the total amount of halogen (chloride and bromide ions) in the cerebrospinal fluid and serum can reach 120-130 mM (69, 70) and that bromide is able to substitute up to 30% of chloride concentration (71), leading to a theoretical concentration of 91 mM chloride and 36 mM bromide. We thus chose the dose of 100 mM chloride as physiological control (complemented with gluconate NaC6H11O7 to maintain equivalent osmolarity between buffers (56)), and added or not 50 mM chloride or bromide to assess their effects in vitro. Chemicals were purchased from Sigma-Aldrich (Merck, L'Isle D'Abeau Chesnes, France). The pH of all buffers was adjusted to 7.4 before experiments. […]
Calcium mobilization assay: 24 h after transfection, cells were loaded with 1 μM calcium-sensitive fluorescent dye (Fluo-4 AM; Invitrogen, Life Technologies) diluted in fresh C1^− buffer (154.6 mM) for 1 h at 37° C. and 5% CO2. […] Ca^2+ release was determined using μCell FDSS (Hamamatsu Photonics). Fluoresence was recorded for 60 s at 480 nm excitation and 540 nm emission after 20 s record of baseline.
Data were analyzed using Prism 6 software (GraphPad Software, San Diego, CA, USA). […] Statistical differences between pEC50, ΔpEC50 and Emax were determined using a one-way analysis of variance followed by Tukey's post-test.
We measured mGlu4 signaling under glutamate stimulation in HEK293T cells transiently expressing mGlu4 receptors and Gαqi9, a Gi/Gq chimeric G-protein (57) that allows mGlu4 to activate the phosphoinositide pathway. Receptor activation was then evaluated by measuring intracellular Ca^2+ release or inositol monophosphate (IP1, FIG. 5A). […]

[4] = tested on: Shank3^Δex13-16−/− mice; assay: Marble-burying; assay type: in vivo, mouse; settings: Shank3Δex13-16−/− and WT mice, chronic NaBr 250 mg/kg once daily
Procedure: as §1
(§4) Marble-burying. Marble burying was used as a measure of perseverative behavior (68). Mice were introduced individually in transparent cages (21×11×17 cm) containing 20 glass marbles (diameter: 1.5 cm) evenly spaced on 4-cm deep fresh sawdust. To prevent escapes, each cage was covered with a filtering lid. Light intensity in the room was set at 40 lux. The animals were removed from the cages after 15 min, and the number of marbles buried more than half in sawdust was quoted.
as §3

[5] = tested on: Fmr1^−/− mice; assay: Marble-burying; assay type: in vivo, mouse; settings: Fmr1+/+ and Fmr1−/− mice; chronic NaBr 250 mg/kg once daily
Procedure: as §1, §4, §3

[6] = chronic NaBr 250 mg/kg once daily
[7] = one week after interruption of NaBr 250 mg/kg

Structure (SMILES): [Br-].[Na+] [NaBr, sodium bromide]
- duration of nose contacts [1, 6]: restored the duration of nose
- duration of paw contacts [1, 6]: restored
- grooming after social contact [1, 6]: suppressed grooming after social contact
- number of following episodes [1, 6]: normalized the number of following episodes
- duration of paw contacts [1, 7]: no effect of previous bromide treatment was longer detected
- grooming after social contact [1, 7]: remained efficiently suppressed
- duration of nose contacts [2, 6]: restored the duration of nose
- duration of paw contacts [2, 6]: restored
- grooming after social contact [2, 6]: suppressed grooming after social contact
- number of following episodes [2, 6]: normalized the number of following episodes
- duration of paw contacts [2, 7]: significant beneficial effects were still detected
- number of grooming episodes after a social contact [2, 7]: significant beneficial effects were still detected
- increase in glutamate pEC50 ([3]; HEK293 cells, mGlu4 + Gαqi9, addition of 50 mM bromide versus physiological chloride (100 mM Cl− + 50 mM gluconate)): 0.73±0.05 log
- ΔpEC50 of glutamate, bromide versus equivalent concentration of chloride ([3]; HEK293 cells, mGlu4 + Gαqi9, compared with +50 mM Cl−): 0.27±0.04
- rise in maximal mGlu4-triggered calcium release (Emax) ([3]; HEK293 cells, mGlu4 + Gαqi9, glutamate, bromide versus physiological chloride): 65±9%
- modulation of mGlu4 (PAM behaviour) ([3]; calcium mobilization assay, 100 mM Cl− + 50 mM Br−, broader effects than chloride ions on pEC50 and Emax): behave as PAM of mGlu4
- marble burying [4]: had no effect on reduced burying in Shank3^Δex13-16−/− mice
- marble burying ([4]; listed as bromide): decreased burying in both mutant and WT mice
- number of buried marbles [5]: reduced the number of buried marbles in both Fmr1^+/+ and Fmr1^−/− mice
